“And” between values parts separate entries of the source, which are not always exact repeats. Identical values can stand only once. Marks after values point to notes of the source that are not given here.

In general, Km refers to the substrate concentration at which the rate is half of its maximum. What is called Vmax is the top rate of the reaction or transport when substrate is in excess.

Series [1] deals with T1, HSV1-TK, GMPK and baker's yeast NDPK (Human herpesvirus 1, UniProt P0DTH5).
T1 construct: purchased SIGMA
In words: TK-GMPK-NDPK coupling with baker's yeast NDPK. The class given is biochemical, herpes simplex virus type 1; S. cerevisiae. Conditions: substrate 100 μM.

Series [2] addresses HSV1-TK and GMPK from S. cerevisiae (Human herpesvirus 1, UniProt P0DTH5). In words: TK-GMPK coupling, % of products formed. The conditions noted are these: for % of the products formed, NDP / % of the products formed, NMP: substrate 100 μM. Format: biochemical, herpes simplex virus type 1; S. cerevisiae. The procedure:
(§1) In a preferred coupling mode, the incubation is carried out in 100 μl of 50 mM Tris/HCl buffer pH 7.8, containing 1 mg/ml of BSA (bovine serum albumin), 5 mM ATP, 4 mM MgCl2, 12 mM KCl, 2 mM DTT, 600 μM EDTA, 100 μM [8-3H]-GCV (40 nCi/nmol) or 100 μM [2-3H]-ACV 40 nCi/nmol and various quantities of TK, GuK and NDPK (cf Table 2).

A further series concerns Mixture 2-865:H12/GMPK. In words: Phosphorylation to diphosphate by mixture of 2-865:H12 and GMPK. The class given is biochemical. The procedure:
The capacity of the TK-GMPK fusion protein to convert GCV or ACV to GCVDP or ACVDP compared with a synthetic mixture of TK and GMPK is determined in the following manner:
(§2) The reaction is stopped by heating for 3 min at 80° C.; after centrifugation, 100 μl of incubation product are analyzed in the following system: […]

For series [3], the target named is T2, HSV1-TK, GMPK and human (erythrocyte) NDPK (Human herpesvirus 1, UniProt P0DTH5).
T2 construct: purchased SIGMA; host or cells: human erythrocytes (NDPK)
In words: TK-GMPK-NDPK coupling with human erythrocyte NDPK. The class given is biochemical. Conditions: substrate 100 μM. The procedure: as §1

Series [4] has as its target T3, HSV1-TK, GMPK and bovine (liver) NDPK (Human herpesvirus 1, UniProt P0DTH5).
T3 construct: purchased SIGMA; host or cells: bovine liver (NDPK)
In words: TK-GMPK-NDPK coupling with bovine liver NDPK. The class given is biochemical. Conditions: substrate 100 μM. The method, then: as §1

Series [5] has as its target T4, HSV1-TK/S. cerevisiae GMPK fusion protein (UniProt P0DTH5+P15454, V34A).
T4 construct: made in house; host or cells: E. coli BL21 DE3 pXL3098 (pET11a)
T4 sequence (P0DTH5+P15454 with tags, fused parts or gaps P15454:V34A): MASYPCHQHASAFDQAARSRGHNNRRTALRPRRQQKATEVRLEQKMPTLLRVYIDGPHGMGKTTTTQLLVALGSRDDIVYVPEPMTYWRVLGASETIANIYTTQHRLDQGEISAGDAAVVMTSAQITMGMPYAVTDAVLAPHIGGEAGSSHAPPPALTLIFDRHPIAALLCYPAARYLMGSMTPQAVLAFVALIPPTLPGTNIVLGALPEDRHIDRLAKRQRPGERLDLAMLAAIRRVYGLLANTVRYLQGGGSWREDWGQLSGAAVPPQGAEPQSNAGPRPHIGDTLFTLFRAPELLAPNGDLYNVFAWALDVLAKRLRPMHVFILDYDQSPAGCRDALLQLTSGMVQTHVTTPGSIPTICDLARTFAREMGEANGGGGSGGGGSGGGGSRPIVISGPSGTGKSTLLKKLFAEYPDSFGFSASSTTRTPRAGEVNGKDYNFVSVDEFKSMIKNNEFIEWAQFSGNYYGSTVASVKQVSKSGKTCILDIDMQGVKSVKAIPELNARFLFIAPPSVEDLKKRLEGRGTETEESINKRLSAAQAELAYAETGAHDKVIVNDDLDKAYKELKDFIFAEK
In words: Phosphorylation to diphosphate by TK-GMPK fusion protein. The class given is biochemical, herpes simplex virus type 1; S. cerevisiae. The method, then: as §2

A further series relates to glioma. The conditions noted are these: rats having a glioma, HSV1-TK gene expressed, 150 mg/kg doses injected; cited from earlier work.
The target in series [6] is Mixture wild type TK/GMPK (Human herpesvirus 1, UniProt P0DTH5). The class given is biochemical, herpes simplex virus type 1; S. cerevisiae. The conditions noted are these: Mixture wild type/GMPK 1.66/0.33 μg; GCV 100 μM. The procedure:
as §2

In a further series the test system is mice. The conditions noted are these: mouse, in vivo, 150 mg/kg; cited from earlier work.
Series [7] deals with T5, Human guanylate kinase (erythrocytes) (Homo sapiens, UniProt Q16774).
T5 construct: enzymatic preparations of guanylate kinase and of nucleoside diphosphate kinase of human erythrocytes; host or cells: human erythrocytes
T5 sequence (Q16774 1-197): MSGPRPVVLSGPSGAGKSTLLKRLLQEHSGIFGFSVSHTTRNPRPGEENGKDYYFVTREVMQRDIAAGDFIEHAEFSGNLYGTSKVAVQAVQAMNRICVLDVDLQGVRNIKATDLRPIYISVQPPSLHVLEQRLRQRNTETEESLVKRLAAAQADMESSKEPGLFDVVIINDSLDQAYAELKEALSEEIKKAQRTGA
The conditions noted are these: human erythrocyte GMPK, published values a, c, cited from earlier work; for Km: b.

Series [8] addresses T6, Yeast guanylate kinase (S. cerevisiae) (Saccharomyces cerevisiae, UniProt P15454).
T6 sequence (P15454 1-187): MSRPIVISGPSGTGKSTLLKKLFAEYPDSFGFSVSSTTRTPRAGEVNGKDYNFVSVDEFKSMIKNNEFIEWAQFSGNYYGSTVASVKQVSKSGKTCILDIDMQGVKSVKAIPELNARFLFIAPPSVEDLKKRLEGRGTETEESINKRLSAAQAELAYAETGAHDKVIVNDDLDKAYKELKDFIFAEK
In words: Kinetic constants of yeast guanylate kinase for GCVMP and ACVMP. The class given is biochemical. The conditions noted are these: for Km / Vmax: yeast GMPK, 30° C., pH 7.8, 4 mM ATP. The method, then: The kinetic constants for the yeast GMP kinase purified as described in Example 3 are determined under the following enzymatic assay conditions: The yeast GMP kinase is incubated for 10 min at 30° C. in 100 μl of 50 mM Tris/HCl buffer pH 7.8 containing 4 mM ATP, 10 mM MgCl2, 100 mM KCl, 1 mg/ml BSA (bovine serum albumin) and 5-100 μ[…] (40 nCi/nmol) or 200-3200 μ[…] (40 nCi/nmol). he reaction is stopped by heating the reaction mixture for 3 min at 80° C., 50 μl of 10 mM potassium phosphate buffer pH 3.5 are added, and after centrifugation for 2 min at 10,000×g, 100 μl of supernatant are analysed by high performance liquid chromatography (HPLC) in the following system: for the calculation of the kinetic constants, the quantity of yeast GMP kinase introduced into the enzymatic reaction is adjusted so as to convert at most 10% of the substrate initially introduced. The Michaelis curves are adjusted to the experimental points with the aid of the Grafit software (Sigma). […] For substrates entering into competition, the Vmax/Km constant determines the specificity of the enzyme for these substrates. It is known by the name of “specificity constant” [A. Fersht, Enzyme Structure and Mechanism, 1985, W. H. Fréeman and Co., London].

The mark [9] stands for this setting: TK 11.7 μg, GMPK 74 μg, yeast NDPK 1.5 μg, 20 min.
The mark [10] stands for this setting: TK 11.7 μg, GMPK 74 μg, yeast NDPK 15 μg, 30 min.
[11] abbreviates: TK 11.7 μg, GMPK 74 μg, human NDPK 6.75 μg, 30 min.
The mark [12] stands for this setting: TK 11.7 μg, GMPK 74 μg, bovine NDPK 5 μg, 30 min.
The mark [13] stands for this setting: TK 1.3 μg, GMPK 2.5 μg, yeast NDPK 0.75 μg, 60 min.
[14] abbreviates: TK 10.4 μg, GMPK 7.4 μg, yeast NDPK 0.75 μg, 20 min.
[15] abbreviates: TK 10.4 μg, GMPK 7.4 μg, yeast NDPK 1.5 μg, 30 min.
Where [16] appears, read: TK 10.4 μg, GMPK 7.4 μg, 30 min.
Setting [17] is: TK 10.4 μg, GMPK 7.4 μg, human NDPK 0.675 μg, 20 min.
The mark [18] stands for this setting: TK 10.4 μg, GMPK 7.4 μg, human NDPK 6.75 μg, 30 min.
[19] abbreviates: TK 10.4 μg, GMPK 7.4 μg, bovine NDPK 0.5 μg, 20 min.
Setting [20] is: TK 10.4 μg, GMPK 7.4 μg, bovine NDPK 5 μg, 30 min.

In the case of `Nc1nc2c(ncn2COCCO)c(=O)[nH]1` [ACV, acyclovir], the “% of the products formed, NDP” value was 60.0% in series [1] (setting [9]); 4.6% in series [1] (setting [10]); 54% in series [2] (TK 11.7 μg, GMPK 74 μg, 20 min); 80.0% in [3] (setting [11]); 82.0% in [4] (setting [12]). Further, the “% of the products formed, NMP” value in series [1] (setting [9]) stood at 13.0%; in [1] (setting [10]), 1.4%; in series [2] (TK 11.7 μg, GMPK 74 μg, 20 min), 26.0%; in series [3] (setting [11]), 1.8%; in [4] (setting [12]), 1.7%. The “% of the products formed, NTP” value in [1] (setting [9]) came to 8%; in series [1] (setting [10]), 81%; in series [4] (setting [12]), 1.3%. Besides, the GCVDP formed in the series with Mixture 2-865:H12/GMPK (Mixture 2-865/H12/GMPK 133/66 μg, ACV 100 μM) is given as 17260** pmmol; in the series on Mixture 2-865:H12/GMPK (Mixture 2-865: H12/GMPK 33/17 μg, ACV 20 μM), 2325** pmmol; in the series with Mixture 2-865:H12/GMPK (Mixture 2-865: H12/GMPK 33/17 μg, ACV 50 μM) it was 3680** pmmol; in the series on Mixture 2-865:H12/GMPK (Mixture 2-865: H12/GMPK 33/17 μg, ACV 50 μM Incub 1 h), 5890** pmmol; in [5] (Fusion 50 μg, ACV 20 μM) it was 1220** pmmol; in [5] (Fusion 50 μg, ACV 50 μM), 2920** pmmol. Further, the GCVDP formed in series [5] (Fusion 50 μg, ACV 50 μM Incub 1 h) is 6740** pmmol; in [5] (Fusion 200 μg, ACV 100 μM), 18500** pmmol.

For `Nc1nc(O)c2ncn(COC(CO)CO)c2n1` [GCV, ganciclovir], the tumour response entry with glioma is “regressions of tumour”. In addition, the GCVDP formed in series [6] is 4660** pmmol; in the series with Mixture 2-865:H12/GMPK (Mixture 2-865: H12/GMPK 1.66/0.33 μg, GCV 50 μM), 5300** pmmol; in series [5] (Fusion 2 μg, GCV 50 μM), 4900** pmmol; in [5] (Fusion 2 μg, GCV 100 μM), 8270** pmmol. Also, the “% of the products formed, NDP” value was 13.8% in series [1] (setting [13]); 12.6% in series [1] (setting [14]); 6.9% in series [1] (setting [15]); 89.0% in series [2] (TK 2.6 μg, GMPK 2.5 μg, 30 min); 90.8% in series [2] (setting [16]); 90.3% in series [3] (setting [17]). Further, the “% of the products formed, NDP” value in series [3] (setting [18]) is 71.1%; in series [4] (setting [19]), 78.4%; in series [4] (setting [20]), 5.8%. The “% of the products formed, NMP” value in [1] (setting [13]) was determined as 3.2%; in series [1] (setting [14]) it was 2.6%; in [1] (setting [15]) it was 0.9%; in series [2] (TK 1.3 μg, GMPK 2.5 μg, 60 min) it was 4.4%; in series [2] (TK 2.6 μg, GMPK 2.5 μg, 30 min), 7.5%; in series [2] (setting [16]), 5.3%. In addition, the “% of the products formed, NMP” value in series [3] (setting [17]) is on record as 6.2%; in [3] (setting [18]) it was 2.5%; in series [4] (setting [19]) it was 6.5%; in [4] (setting [20]), 0.6%. For the same molecule, the “% of the products formed, NTP” value in [1] (setting [15]) is 91.1%; in series [3] (setting [17]), 1.5%; in [3] (setting [18]), 24%; in [4] (setting [19]) it was 12.9%; in [4] (setting [20]), 92%. In addition, the “phosphorylation of ganciclovir to ganciclovir diphosphate” value in [2] (coupling of HSV1-TK and GMPK from S. cerevisiae) was 90%. For the same molecule, the toxicity result with mice is listed as “highly toxic”. In [5] (compared with coincubation of wild-type TK enzyme and GMPK enzyme), the “improvement in phosphorylation by TK-GMPK fusion protein, factor” value was at most 1.8.

Take acyclovir monophosphate [ACVMP]: in [7], the Km was 218 µM and 209 to 753 µM and 330 µM; the Vmax was 1.9^a μmol/min/mg and 3.6^c μmol/min/mg. Further, in series [8], the Km came to 280 µM and the Vmax was found to be 22 µmol/min/mg.

ganciclovir monophosphate [GCVMP]: in [7], the Km is 42 to 54 µM and 40 µM; the maximum rate (Vmax) is 20^a μmol/min/mg. In addition, in [8], the Km worked out at 18 µM and the maximal velocity (Vmax) amounted to 40 µmol/min/mg. Further, the “phosphorylation rate of yeast guanylate kinase relative to human enzyme” value in [8] (yeast vs human GMPK) is on record as “twice as high”.

The record behind these values is patent US6518062B1, “Enzyme combinations for destroying proliferative cells” (priority 1996, dated 2003).
